From ChEMBL document CHEMBL4507291 (2021)

Columns and labels:
[1] = molecular target: Protein kinase C zeta type (Homo sapiens) (UniProt Q05513); test: PRKCZ (PKC zeta) Kinase screen; settings: Compound concentration 1.0 uM
[2] = molecular target: High affinity nerve growth factor receptor (Homo sapiens) (UniProt P04629); test: NTRK1 (TRKA) Kinase screen; settings: Compound concentration 1.0 uM
[3] = molecular target: Serine/threonine-protein kinase B-raf (Homo sapiens) (UniProt P15056); test: BRAF Kinase screen; settings: Compound concentration 1.0 uM
Serine/threonine-protein kinase B-raf (Homo sapiens), sequence (P15056 whole entry): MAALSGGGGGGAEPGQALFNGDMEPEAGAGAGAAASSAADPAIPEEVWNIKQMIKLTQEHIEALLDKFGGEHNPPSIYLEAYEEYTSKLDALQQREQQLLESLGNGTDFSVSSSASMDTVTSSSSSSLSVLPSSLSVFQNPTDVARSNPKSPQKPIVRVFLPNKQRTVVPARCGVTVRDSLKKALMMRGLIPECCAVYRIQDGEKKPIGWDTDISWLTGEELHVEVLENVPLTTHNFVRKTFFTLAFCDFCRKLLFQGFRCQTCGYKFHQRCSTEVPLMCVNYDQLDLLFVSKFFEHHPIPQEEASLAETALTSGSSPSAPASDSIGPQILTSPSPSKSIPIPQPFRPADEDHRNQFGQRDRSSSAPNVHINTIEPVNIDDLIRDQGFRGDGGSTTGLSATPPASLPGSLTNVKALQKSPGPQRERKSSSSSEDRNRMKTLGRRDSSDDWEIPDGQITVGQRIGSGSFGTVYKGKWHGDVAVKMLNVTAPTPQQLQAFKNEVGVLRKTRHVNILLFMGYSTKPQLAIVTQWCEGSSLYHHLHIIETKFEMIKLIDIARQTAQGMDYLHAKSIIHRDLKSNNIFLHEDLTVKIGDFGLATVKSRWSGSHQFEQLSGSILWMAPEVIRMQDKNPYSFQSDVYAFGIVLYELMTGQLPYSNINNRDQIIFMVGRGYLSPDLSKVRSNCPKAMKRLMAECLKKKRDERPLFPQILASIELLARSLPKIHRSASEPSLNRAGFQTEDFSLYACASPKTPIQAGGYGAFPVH

[4] = molecular target: Serine/threonine-protein kinase Nek4 (Homo sapiens) (UniProt P51957); test: NEK4 Kinase screen; settings: Compound concentration 1.0 uM
[5] = molecular target: MAP/microtubule affinity-regulating kinase 3 (Homo sapiens) (UniProt P27448); test: MARK3 Kinase screen; settings: Compound concentration 1.0 uM
MAP/microtubule affinity-regulating kinase 3 (Homo sapiens), sequence (P27448 whole entry, looked up): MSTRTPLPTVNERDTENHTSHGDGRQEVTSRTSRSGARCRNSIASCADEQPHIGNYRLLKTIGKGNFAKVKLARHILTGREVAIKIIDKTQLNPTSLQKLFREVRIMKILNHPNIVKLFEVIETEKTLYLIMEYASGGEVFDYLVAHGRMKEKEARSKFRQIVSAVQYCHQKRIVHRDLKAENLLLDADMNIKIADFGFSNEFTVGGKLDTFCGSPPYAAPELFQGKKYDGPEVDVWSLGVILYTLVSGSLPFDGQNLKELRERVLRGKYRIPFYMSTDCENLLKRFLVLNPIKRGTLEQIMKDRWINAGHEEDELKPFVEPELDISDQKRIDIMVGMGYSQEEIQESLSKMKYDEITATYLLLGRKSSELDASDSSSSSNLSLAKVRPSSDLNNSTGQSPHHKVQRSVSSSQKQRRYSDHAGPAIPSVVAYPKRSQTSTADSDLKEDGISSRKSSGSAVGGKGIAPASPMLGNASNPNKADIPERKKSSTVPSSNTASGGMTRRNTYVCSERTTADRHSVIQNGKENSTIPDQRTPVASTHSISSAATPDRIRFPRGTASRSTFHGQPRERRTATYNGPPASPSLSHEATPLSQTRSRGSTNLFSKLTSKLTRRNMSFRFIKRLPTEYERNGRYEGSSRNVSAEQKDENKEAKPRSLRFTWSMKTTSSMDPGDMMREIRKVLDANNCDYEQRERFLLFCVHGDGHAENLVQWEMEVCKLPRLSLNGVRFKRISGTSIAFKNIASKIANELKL

[6] = molecular target: G protein-coupled receptor kinase 4 (Homo sapiens) (UniProt P32298); test: GRK4 Kinase screen; settings: Compound concentration 1.0 uM
[7] = molecular target: SRSF protein kinase 1 (Homo sapiens) (UniProt Q96SB4); test: SRPK1 Kinase screen; settings: Compound concentration 1.0 uM
SRSF protein kinase 1 (Homo sapiens), sequence (Q96SB4 whole entry, the tested form may be a part): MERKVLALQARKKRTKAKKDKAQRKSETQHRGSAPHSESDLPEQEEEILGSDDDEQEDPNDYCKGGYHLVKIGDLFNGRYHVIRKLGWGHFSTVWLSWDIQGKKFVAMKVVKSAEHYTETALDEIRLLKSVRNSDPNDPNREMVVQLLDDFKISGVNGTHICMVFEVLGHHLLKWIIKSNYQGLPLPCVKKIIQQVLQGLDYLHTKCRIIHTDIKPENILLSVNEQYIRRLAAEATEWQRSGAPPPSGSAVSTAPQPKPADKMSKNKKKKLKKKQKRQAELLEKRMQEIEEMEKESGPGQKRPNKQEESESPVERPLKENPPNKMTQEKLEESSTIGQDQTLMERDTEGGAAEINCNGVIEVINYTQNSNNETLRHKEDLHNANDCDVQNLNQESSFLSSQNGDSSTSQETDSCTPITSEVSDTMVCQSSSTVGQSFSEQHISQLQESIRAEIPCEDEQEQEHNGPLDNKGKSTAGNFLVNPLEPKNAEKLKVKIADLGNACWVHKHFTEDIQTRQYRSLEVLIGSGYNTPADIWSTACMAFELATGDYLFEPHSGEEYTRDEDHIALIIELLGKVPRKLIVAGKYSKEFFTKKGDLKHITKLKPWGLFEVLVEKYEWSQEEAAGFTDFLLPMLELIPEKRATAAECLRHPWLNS

[8] = molecular target: Epithelial discoidin domain-containing receptor 1 (Homo sapiens) (UniProt Q08345); test: DDR1 Kinase screen; settings: Compound concentration 1.0 uM
[9] = molecular target: Aurora kinase B (Homo sapiens) (UniProt Q96GD4); test: AURKB (Aurora B) Kinase screen; settings: Compound concentration 1.0 uM
Aurora kinase B (Homo sapiens), sequence (Q96GD4 whole entry): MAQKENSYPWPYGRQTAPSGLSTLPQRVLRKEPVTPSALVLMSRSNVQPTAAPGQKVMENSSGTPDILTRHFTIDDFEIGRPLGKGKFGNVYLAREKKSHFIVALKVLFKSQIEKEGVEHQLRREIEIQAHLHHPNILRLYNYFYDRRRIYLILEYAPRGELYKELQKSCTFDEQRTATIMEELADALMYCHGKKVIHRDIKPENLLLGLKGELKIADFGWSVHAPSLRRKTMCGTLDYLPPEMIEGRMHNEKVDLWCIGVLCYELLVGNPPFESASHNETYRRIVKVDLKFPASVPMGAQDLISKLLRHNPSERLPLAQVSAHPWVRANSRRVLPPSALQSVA

[10] = molecular target: Cannabinoid receptor 2 (Homo sapiens) (UniProt P34972)
Cannabinoid receptor 2 (Homo sapiens), sequence (P34972 whole entry): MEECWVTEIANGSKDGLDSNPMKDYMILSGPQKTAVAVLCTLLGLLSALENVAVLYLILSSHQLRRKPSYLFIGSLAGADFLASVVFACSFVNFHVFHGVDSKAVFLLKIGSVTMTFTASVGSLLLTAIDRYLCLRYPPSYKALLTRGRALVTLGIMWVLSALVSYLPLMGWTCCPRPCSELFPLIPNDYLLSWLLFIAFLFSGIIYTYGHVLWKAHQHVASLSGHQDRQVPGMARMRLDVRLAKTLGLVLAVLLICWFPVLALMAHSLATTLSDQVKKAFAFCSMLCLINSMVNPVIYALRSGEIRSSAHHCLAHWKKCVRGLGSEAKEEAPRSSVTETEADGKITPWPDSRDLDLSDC

[11] = molecular target: T1, Muscarinic acetylcholine receptor M5 (Homo sapiens) (UniProt P08912); test: Inhibition of Muscarinic M5 at 10 µM in the Eurofins-Panlabs radioligand binding assay (Eurofins_assay_253010); parameters: ligand concentration 0.8 nM; settings: Compound concentration 10.0 uM
T1 sequence (whole entry): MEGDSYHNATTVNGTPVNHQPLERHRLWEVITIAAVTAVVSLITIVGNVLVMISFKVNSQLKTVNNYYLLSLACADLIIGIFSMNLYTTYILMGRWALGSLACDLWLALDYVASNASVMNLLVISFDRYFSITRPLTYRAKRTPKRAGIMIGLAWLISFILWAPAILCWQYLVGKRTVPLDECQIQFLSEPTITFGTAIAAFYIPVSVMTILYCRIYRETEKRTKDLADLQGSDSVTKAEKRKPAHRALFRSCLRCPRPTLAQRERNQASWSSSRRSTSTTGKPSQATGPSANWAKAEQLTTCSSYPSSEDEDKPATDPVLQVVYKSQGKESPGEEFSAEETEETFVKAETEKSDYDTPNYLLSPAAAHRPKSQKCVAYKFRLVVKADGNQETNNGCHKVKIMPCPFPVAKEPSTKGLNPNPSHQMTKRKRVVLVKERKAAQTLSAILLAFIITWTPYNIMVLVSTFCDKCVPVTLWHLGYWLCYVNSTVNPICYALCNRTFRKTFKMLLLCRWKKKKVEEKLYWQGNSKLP

[12] = molecular target: T2, Alpha-1A adrenergic receptor (Homo sapiens) (UniProt P35348); settings: Rattus norvegicus; Compound concentration 10.0 uM
T2 sequence (whole entry): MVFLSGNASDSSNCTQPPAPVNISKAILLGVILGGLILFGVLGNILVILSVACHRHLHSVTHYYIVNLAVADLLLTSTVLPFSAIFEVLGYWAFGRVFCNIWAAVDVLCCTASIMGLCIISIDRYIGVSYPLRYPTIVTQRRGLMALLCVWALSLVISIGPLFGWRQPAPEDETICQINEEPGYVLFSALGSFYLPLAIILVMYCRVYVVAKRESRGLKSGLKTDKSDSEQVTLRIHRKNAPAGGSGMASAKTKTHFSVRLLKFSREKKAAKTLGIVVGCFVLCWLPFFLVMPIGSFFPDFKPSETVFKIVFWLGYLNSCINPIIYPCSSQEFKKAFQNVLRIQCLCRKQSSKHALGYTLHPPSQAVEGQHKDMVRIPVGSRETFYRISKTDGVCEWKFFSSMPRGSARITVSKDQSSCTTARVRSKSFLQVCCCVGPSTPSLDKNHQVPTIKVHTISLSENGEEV

[13] = molecular target: T3, Serine/threonine-protein kinase Nek2 (Homo sapiens) (UniProt P51955); test: NEK2 Kinase screen; settings: Compound concentration 1.0 uM
T3 sequence (whole entry): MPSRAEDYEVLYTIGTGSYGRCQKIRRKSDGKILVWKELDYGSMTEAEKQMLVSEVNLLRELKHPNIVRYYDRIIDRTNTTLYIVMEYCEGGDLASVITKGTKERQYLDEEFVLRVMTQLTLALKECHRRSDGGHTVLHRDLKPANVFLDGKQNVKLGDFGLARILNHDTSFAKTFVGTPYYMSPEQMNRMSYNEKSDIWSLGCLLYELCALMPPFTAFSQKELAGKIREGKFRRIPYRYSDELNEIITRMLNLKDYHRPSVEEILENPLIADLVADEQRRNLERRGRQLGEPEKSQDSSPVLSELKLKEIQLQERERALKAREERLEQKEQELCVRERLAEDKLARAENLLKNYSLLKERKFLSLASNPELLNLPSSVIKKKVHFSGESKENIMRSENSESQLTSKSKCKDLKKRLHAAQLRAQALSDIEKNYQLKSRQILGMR

[14] = molecular target: Muscarinic acetylcholine receptor M3 (Homo sapiens) (UniProt P20309); settings: Compound concentration 10.0 uM
Muscarinic acetylcholine receptor M3 (Homo sapiens), sequence (P20309 whole entry, looked up): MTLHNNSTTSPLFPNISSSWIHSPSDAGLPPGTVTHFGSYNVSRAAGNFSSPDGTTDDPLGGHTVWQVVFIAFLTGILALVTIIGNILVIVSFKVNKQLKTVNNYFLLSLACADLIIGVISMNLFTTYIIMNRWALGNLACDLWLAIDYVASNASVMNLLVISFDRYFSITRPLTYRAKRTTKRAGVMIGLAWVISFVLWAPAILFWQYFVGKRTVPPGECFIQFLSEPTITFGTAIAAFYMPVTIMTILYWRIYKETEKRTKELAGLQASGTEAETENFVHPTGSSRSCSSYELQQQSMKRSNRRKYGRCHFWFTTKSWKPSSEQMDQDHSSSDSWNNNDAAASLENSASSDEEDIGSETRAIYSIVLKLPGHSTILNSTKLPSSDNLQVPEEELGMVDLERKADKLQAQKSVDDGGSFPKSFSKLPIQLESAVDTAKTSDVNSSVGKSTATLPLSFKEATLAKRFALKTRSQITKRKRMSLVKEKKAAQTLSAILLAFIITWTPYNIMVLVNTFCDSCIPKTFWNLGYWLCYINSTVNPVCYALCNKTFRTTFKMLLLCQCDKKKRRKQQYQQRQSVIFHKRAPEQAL

[15] = molecular target: T4, cGMP-dependent protein kinase 2 (Homo sapiens) (UniProt Q13237); test: PRKG2 (PKG2) Kinase screen; settings: Compound concentration 1.0 uM
T4 sequence (whole entry): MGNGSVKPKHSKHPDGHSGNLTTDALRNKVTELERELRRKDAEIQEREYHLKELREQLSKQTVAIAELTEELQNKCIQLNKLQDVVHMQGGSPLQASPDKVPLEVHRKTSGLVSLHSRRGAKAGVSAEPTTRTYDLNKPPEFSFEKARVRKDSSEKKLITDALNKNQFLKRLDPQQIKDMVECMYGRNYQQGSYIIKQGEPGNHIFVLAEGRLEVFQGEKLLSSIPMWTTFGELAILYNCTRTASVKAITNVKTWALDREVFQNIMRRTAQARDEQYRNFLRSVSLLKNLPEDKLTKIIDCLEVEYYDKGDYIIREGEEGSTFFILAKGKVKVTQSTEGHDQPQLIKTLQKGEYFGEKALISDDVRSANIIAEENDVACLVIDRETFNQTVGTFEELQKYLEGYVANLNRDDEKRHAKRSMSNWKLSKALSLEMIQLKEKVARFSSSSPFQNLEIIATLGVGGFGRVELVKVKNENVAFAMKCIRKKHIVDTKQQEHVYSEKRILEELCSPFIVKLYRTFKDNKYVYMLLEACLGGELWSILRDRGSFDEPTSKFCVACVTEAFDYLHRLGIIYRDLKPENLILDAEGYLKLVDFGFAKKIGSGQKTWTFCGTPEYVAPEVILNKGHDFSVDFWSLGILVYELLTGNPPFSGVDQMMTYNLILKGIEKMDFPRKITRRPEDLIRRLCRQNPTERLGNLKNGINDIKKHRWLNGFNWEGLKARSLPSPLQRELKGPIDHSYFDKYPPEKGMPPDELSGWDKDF

[16] = molecular target: Tyrosine-protein kinase SYK (Homo sapiens) (UniProt P43405); test: SYK Kinase screen; settings: Compound concentration 1.0 uM

Measured: inhibition

Protein kinase C zeta type (Homo sapiens), sequence (Q05513 whole entry): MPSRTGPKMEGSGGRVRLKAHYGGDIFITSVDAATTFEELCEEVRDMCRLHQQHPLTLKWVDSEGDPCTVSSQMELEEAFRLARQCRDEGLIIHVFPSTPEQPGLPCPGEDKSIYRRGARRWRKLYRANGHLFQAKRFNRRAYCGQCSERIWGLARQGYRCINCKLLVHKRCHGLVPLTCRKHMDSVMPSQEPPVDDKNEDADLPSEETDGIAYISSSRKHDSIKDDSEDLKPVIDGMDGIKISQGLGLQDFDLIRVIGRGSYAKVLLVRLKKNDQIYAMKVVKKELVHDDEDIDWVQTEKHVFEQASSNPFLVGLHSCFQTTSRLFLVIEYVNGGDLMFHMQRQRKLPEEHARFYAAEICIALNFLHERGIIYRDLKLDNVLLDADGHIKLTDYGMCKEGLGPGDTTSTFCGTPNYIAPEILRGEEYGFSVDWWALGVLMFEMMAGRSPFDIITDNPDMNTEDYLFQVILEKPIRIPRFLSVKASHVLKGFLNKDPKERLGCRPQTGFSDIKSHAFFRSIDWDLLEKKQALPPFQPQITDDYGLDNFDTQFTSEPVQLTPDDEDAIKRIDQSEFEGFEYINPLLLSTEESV
High affinity nerve growth factor receptor (Homo sapiens), sequence (P04629 33-796 limits assumed): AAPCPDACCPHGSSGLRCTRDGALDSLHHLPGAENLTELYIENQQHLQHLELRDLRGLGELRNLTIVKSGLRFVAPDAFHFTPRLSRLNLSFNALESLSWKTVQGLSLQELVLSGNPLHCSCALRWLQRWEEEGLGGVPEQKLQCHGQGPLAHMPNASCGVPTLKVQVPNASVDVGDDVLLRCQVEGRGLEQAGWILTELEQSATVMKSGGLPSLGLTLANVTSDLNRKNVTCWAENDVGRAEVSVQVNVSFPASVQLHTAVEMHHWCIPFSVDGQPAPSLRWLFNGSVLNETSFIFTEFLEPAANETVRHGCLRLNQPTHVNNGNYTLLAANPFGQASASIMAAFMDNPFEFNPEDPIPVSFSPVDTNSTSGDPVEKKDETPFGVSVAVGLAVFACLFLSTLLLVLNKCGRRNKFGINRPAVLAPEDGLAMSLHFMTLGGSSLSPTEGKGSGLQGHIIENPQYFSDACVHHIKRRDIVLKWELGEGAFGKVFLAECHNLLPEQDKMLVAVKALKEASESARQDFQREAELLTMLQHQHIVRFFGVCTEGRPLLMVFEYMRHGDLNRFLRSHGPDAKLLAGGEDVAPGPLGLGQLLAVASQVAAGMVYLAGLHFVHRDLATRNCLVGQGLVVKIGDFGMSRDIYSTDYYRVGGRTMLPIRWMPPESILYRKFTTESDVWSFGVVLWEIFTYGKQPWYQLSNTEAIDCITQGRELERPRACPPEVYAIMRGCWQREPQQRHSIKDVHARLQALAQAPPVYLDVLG

C[C@@H]1CN(c2cc(-c3n[nH]c4ccc(OC5(C)CC5)cc34)ncn2)C[C@H](C)O1 [MLi-2]
inactive: [1] -4.02% | [2] 0.799% | [3] 27.1% | [4] 6.39% | [5] 1.57% | [6] 6.02% | [7] 6.15% | [8] 0.893% | [9] 16.2% | [10]; Compound concentration 3.0 uM 2% | [10]; Compound concentration 10.0 uM 2% | [11] -8% | [12] 9% | [13] -2.6% | [14] 26% | [15] 1.23% | [16] 2.84%
